# Assay results as given in ChEMBL document CHEMBL1201862, “PubChem BioAssay data set” (2004).
# Active and inactive are the calls of the source.
# Key:
# [1] = tested on: HEK293; assay: cells; type: functional, cell-based; details: Homo sapiens
# [2] = target: T1, Nuclear receptor subfamily 0 group B member 1 (Homo sapiens, UniProt P51843); assay: Luminescence-based cell-based high throughput dose response assay for inhibitors of the orphan nuclear receptor subfamily 0, group B, member 1 (DAX1; NR0B1). [Related pubchem assays (depositor defined):AID504766, AID504790]; type: functional
# T1 sequence (P51843 whole entry): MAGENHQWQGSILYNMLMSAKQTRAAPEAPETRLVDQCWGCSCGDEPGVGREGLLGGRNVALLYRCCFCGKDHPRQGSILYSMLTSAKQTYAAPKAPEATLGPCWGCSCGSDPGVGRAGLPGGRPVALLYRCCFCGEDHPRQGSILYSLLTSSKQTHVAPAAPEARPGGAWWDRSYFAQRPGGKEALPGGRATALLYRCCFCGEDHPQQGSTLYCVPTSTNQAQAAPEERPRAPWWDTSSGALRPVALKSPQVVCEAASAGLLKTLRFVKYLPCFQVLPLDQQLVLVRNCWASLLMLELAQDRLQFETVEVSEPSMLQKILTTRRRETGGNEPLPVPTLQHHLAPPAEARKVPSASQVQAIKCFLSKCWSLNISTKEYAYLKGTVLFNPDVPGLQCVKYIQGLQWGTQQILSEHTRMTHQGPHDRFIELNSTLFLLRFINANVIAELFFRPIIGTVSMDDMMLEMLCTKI
# [3] = HEK-293T cell viability reduction – luminescence, B-cell screen hits, cytotoxicity control for BCR NF-kB inhibitor project, dose response (AID 489021); type: functional, cell-based;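 note: HEK-293T cells carrying an NF-kB luciferase reporter; cells exposed to compound for about 14 hours before viability readout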
# [4] = viability of uninfected HEp-2 cells – cell-based, HTS, cytotoxicity control for RSV inhibitor project, dose response (AID 2410); type: functional; details: human respiratory syncytial virus
# [5] = target: G-protein coupled receptor 55 (Homo sapiens, UniProt Q9Y2T6); assay: selective activators of receptor GPR55 – imaging, U2OS cells, beta-arrestin-GFP redistribution, primary screen (AID 1961); type: functional
# [6] = target: T2, Short transient receptor potential channel 4 (Mus musculus, UniProt Q9QUQ5); assay: block of DAMGO-driven TRPC4 calcium entry – cell-based, HEK293 TRPC4/mu-opioid, Fluo-4 calcium, dose response (AID 434942); type: functional;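 note: potency of inhibitors blocking the TRPC4 calcium response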
# T2 sequence (Q9QUQ5 whole entry): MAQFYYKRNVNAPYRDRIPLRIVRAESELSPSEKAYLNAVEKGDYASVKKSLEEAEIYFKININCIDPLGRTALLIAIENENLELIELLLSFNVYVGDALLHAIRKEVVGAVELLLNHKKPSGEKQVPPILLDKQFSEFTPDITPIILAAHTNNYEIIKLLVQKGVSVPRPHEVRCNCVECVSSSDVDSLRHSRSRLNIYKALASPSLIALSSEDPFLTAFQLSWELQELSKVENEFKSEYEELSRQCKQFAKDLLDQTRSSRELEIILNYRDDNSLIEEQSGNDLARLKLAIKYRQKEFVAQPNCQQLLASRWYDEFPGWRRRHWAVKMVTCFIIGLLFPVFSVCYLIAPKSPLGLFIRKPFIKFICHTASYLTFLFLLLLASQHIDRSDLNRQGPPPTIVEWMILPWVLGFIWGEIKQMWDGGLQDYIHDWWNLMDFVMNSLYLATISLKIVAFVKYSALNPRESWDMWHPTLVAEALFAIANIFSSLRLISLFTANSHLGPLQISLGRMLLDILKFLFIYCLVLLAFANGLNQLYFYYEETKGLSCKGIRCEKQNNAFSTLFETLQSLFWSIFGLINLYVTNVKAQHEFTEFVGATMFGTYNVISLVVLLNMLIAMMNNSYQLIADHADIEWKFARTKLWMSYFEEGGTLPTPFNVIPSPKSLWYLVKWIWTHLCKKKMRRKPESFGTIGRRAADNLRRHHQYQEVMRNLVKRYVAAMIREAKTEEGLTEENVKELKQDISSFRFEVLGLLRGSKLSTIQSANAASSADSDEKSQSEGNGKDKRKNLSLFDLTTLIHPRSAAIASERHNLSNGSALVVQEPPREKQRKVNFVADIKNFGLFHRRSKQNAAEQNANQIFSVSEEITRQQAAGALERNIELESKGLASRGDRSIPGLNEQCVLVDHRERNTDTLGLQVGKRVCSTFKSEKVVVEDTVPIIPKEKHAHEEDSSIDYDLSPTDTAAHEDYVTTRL
# [7] = target: T3, Streptokinase A (Streptococcus pyogenes serotype M1, UniProt P10520); assay: viability-normalized secreted streptokinase activity reduction – plasminogen activation absorbance, OD405, dose response (AID 1914); type: functional, Streptococcus pyogenes M1 GAS;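 note: secreted streptokinase activity via plasminogen activation per viability signal from cell pellet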
# T3 sequence (P10520 whole entry): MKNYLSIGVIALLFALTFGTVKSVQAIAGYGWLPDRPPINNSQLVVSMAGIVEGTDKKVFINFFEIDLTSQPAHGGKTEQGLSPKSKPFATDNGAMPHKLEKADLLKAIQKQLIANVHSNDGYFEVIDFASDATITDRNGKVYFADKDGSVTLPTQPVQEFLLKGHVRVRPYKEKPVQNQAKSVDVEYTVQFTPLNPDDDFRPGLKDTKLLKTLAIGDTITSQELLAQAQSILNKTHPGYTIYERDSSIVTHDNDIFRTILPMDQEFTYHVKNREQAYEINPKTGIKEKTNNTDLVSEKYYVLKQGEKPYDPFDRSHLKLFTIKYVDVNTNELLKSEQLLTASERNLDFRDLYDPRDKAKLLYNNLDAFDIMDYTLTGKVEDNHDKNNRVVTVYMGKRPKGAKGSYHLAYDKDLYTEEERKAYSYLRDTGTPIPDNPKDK
# [8] = alpha-synuclein stem-loop luciferase translation blockers – H4 neuroglioma cells, luminescence, confirmation (AID 1988); type: functional, cell-based
# [9] = luciferase reporter signal suppression in cells – H4 neuroglioma cells, luminescence, dose response (AID 1990); type: functional, cell-based
# [10] = Luminescence Cell-Based Dose Response HTS to Identify Inhibitors of 5'UTR Stem-Loop Driven Prion Protein mRNA Translation in H4 Neuroglioblastoma Cells. [Related pubchem assays: 1827 (Project Summary), 1813 (Primary HTS)]; type: functional
# [11] = NIH-3T3 fibroblast cytotoxicity, dose response, cytotoxicity control, cell-based, fluorescence, Alamar Blue, secondary assay (AID 2327); type: functional;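 note: NIH-3T3 mouse fibroblasts cultured with fluconazole at 8 µg/mL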
# [12] = tested on: Streptococcus sp. 'group A'; assay: Streptococcus pyogenes SK(-)GAS viability under kanamycin – luminescence, BacTiterGlo, confirmation, counter-screen for streptokinase expression inhibitor project, dose response (AID 1900); type: functional, organism-based
# [13] = target: Nonstructural protein 1 (Influenza A virus, UniProt Q194T2); type: functional, Influenza A virus (A/California/07/2009(H1N1))
# [14] = tested on: Streptococcus; assay: GAS UMAA2166 growth inhibition – luminescence, BacTiterGlo, counter-screen for streptokinase expression inhibitor project, dose response (AID 1915); type: functional, organism-based;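 note: potency for reduction of bacterial viability or growth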
# [15] = tested on: INS1; assay: INS-1E survival protection against cytokine death – cell-based, luminescence, retest, dose response (AID 449756); type: functional; details: Rattus norvegicus;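 note: cell death triggered by IL-1 beta plus TNF-alpha plus IFN-gamma mixture; protective hits raise ATP signal compared with cytokine alone wells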
# [16] = fluconazole-exposed Candida albicans growth modulators – fluorescence, retest, confirmation (AID 2467); type: functional, cell-based
# [17] = target: T4, Acyl-homoserine lactone acylase PvdQ (Pseudomonas aeruginosa (strain LESB58), UniProt Q9I194); assay: PvdQ acylase enzyme activity blockers – biochemical, fluorescence, plate reader and imaging, cherry-picks, dose response (AID 493231)
# T4 sequence (Q9I194 whole entry): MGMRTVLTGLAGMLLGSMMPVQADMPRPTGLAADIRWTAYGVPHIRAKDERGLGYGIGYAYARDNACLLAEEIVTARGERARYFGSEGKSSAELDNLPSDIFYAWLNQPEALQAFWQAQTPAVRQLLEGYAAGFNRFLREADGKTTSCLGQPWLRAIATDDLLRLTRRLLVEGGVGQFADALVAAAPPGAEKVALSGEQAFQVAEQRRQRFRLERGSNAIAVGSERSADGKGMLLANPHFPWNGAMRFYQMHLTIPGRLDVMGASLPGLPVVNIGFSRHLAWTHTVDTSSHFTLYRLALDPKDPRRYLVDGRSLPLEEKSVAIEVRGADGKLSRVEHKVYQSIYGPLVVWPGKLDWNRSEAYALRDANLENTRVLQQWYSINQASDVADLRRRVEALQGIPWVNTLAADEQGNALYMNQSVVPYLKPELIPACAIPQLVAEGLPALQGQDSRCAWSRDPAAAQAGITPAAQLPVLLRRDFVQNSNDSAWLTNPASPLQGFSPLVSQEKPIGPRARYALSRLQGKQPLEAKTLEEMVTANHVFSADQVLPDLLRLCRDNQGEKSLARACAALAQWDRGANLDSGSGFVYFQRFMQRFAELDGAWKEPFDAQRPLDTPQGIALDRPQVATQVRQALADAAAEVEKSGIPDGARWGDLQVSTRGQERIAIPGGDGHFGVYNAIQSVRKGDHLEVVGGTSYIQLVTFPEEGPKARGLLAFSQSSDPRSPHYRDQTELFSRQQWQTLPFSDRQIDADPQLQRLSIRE
# [18] = target: Eukaryotic translation initiation factor 4E (Mus musculus, UniProt P63073); assay: blockers of eIF4G binding by eIF4E – biochemical, TR-FRET, dose response (AID 855); type: functional;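 note: potency for disrupting eIF4E binding to eIF4GI seen as loss of FRET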
# [19] = target: Nucleotide-binding oligomerization domain-containing protein 2 (Homo sapiens, UniProt Q9HC29); assay: inhibition of NOD2-driven NF-kB reporter – cell-based, luminescence, uHTS, HEK293 (AID 1566); type: functional
# [20] = target: Paired box protein Pax-8 (Homo sapiens, UniProt Q06710); assay: PAX8 transcriptional activity inhibition in RMG-I – RMG-I cells, luciferase, cherry-pick, dose response (AID 687027); type: functional, cell-based;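 note: luciferase reporter driven by Pax8 target thyroperoxidase promoter measured by SteadyGlo luminescence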
# [21] = target: Luciferin 4-monooxygenase (Photinus pyralis, UniProt P08659); assay: inhibition of purified Photinus pyralis luciferase – biochemical, luminescence, dose response (AID 1891)
# [22] = target: T5, Heat shock factor protein 1 (Mus musculus, UniProt P38532); assay: decrease of HSF1-responsive luciferase luminescence – cell-based, NIH3T3, dose retest, confirmation (AID 2382); type: functional;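 note: NIH3T3 fibroblasts with HSF1-driven luciferase reporter stressed by proteasome inhibitor MG132; luminescence from HSF1-driven luciferase expression after 8 hours of MG132 stress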
# T5 sequence (P38532 whole entry): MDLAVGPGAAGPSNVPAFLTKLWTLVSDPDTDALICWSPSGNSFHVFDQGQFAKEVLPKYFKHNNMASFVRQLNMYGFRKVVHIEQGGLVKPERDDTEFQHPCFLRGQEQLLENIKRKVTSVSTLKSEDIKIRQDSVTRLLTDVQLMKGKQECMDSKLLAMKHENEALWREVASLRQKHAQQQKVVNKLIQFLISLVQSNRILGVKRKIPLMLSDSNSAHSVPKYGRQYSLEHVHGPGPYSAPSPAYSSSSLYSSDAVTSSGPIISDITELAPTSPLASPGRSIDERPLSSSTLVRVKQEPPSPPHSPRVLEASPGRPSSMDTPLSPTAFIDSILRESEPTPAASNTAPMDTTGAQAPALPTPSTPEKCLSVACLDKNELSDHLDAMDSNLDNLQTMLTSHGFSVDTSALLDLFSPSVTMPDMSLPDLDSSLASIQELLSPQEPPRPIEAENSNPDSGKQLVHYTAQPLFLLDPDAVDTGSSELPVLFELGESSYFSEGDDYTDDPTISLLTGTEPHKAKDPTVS
# [23] = target: T6, Ubiquitin-conjugating enzyme E2 N (Homo sapiens, UniProt P61088); type: functional;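 note: Dose-response confirmation in a TR-FRET assay detecting UBC13-driven polyubiquitin chain formation, inhibition measured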
# T6 sequence (P61088 whole entry): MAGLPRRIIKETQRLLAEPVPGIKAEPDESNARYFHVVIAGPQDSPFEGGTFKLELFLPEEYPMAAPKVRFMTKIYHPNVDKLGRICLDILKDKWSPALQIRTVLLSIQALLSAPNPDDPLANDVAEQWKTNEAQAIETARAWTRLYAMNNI
# Chain of Eukaryotic translation initiation factor 4E (P63073 whole entry, the tested form may be a part): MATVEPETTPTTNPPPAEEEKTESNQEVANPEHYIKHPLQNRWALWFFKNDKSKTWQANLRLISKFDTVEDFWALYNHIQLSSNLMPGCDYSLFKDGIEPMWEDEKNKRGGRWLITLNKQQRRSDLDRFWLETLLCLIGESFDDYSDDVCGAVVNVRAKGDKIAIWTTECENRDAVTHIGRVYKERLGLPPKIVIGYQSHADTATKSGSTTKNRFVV
# Chain of G-protein coupled receptor 55 (Q9Y2T6 whole entry): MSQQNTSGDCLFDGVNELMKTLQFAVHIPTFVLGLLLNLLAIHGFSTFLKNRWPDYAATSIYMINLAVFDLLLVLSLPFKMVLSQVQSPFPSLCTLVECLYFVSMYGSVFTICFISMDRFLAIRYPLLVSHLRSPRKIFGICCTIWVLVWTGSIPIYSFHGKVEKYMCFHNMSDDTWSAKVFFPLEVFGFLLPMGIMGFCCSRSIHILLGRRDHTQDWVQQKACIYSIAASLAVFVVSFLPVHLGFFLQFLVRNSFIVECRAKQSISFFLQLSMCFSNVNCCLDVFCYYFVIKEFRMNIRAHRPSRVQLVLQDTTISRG
# Chain of Paired box protein Pax-8 (Q06710 whole entry): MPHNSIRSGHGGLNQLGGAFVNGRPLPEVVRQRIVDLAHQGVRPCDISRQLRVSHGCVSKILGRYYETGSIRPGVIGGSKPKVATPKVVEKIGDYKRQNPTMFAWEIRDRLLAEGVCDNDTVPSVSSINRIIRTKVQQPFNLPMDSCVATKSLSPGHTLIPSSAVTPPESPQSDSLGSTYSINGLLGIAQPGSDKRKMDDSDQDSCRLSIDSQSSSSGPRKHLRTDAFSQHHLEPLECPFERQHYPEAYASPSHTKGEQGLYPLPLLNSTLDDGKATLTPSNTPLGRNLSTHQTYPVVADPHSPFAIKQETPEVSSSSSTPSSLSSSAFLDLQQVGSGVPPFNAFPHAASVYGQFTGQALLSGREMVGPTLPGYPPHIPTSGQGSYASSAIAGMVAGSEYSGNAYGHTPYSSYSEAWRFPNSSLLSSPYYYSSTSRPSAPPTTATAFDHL
# Chain of Nonstructural protein 1 (Q194T2 whole entry): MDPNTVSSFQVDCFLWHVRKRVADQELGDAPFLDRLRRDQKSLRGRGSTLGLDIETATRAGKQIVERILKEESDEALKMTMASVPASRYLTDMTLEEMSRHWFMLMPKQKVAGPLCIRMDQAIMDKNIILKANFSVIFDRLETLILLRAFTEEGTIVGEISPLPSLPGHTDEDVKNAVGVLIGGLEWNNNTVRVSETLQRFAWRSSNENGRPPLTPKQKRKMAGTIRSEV
# Chain of Luciferin 4-monooxygenase (P08659 whole entry): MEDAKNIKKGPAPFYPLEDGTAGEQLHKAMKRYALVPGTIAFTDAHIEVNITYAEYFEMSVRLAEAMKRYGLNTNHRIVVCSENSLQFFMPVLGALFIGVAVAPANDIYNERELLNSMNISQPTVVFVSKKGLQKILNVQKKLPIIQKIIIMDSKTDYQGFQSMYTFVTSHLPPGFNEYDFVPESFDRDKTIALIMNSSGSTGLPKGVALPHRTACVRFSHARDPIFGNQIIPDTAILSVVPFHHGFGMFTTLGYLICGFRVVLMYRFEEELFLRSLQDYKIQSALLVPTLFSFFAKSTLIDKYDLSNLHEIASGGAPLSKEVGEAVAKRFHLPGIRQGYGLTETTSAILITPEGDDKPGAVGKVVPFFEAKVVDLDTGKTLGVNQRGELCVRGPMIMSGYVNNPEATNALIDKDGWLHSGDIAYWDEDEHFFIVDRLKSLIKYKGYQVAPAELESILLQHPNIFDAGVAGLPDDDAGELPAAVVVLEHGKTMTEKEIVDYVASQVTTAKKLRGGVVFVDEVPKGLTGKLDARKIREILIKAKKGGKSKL
# Chain of Nucleotide-binding oligomerization domain-containing protein 2 (Q9HC29 whole entry, the tested form may be a part): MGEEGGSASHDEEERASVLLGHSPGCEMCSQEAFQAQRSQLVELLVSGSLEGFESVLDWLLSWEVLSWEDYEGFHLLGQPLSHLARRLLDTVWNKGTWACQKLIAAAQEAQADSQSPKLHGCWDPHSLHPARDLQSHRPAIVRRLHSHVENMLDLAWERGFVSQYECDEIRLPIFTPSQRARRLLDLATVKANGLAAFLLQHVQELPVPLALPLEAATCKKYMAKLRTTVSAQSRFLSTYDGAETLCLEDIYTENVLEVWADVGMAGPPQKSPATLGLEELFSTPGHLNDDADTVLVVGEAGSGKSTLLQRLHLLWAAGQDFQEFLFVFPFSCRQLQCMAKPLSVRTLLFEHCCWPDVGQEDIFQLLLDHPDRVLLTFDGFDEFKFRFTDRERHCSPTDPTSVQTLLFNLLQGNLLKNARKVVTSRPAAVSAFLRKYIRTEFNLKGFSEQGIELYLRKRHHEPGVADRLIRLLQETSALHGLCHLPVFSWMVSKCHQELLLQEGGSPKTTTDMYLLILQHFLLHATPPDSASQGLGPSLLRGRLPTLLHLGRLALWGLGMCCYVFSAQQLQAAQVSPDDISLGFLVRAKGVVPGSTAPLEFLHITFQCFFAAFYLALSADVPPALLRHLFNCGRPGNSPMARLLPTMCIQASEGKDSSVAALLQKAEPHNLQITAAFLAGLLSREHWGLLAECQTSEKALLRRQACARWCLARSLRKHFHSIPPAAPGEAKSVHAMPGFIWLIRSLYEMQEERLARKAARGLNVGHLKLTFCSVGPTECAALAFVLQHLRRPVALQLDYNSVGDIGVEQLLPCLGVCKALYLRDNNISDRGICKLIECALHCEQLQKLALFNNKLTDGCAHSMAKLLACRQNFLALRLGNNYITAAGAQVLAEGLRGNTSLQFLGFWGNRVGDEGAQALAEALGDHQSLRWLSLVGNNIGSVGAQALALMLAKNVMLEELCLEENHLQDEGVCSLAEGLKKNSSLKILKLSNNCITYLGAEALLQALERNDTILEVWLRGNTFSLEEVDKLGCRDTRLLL
smiles,measurement,setting,value
Cn1c(=O)n(C)c2cc(C(=O)Nc3ccc4c(c3)OCO4)ccc21,IC50,[1],> 67.5 µM (inactive)
same,IC50,[2],4.57 µM (active)
same,IC50,[3],> 80 µM (inactive)
Oc1c(Cl)cc(Cl)cc1/C=N/c1ccccc1N1CCCC1,CC50,[4],20.9 µM (active)
same,EC50,[5],> 32 µM (inactive)
N=c1sccn1CC(=O)Nc1ccccc1Oc1ccccc1,EC50,[6],5.96 µM (active)
Cc1ccc2cc(CN(CCCN3CCOCC3)C(c3nnnn3Cc3ccco3)C(C)C)c(O)nc2c1C (stereo not drawn),EC50,[6],0.473 µM (active)
COc1cccc(/C=N/Nc2cc(N3CCOCC3)ncn2)c1O,EC50,[7],> 150 µM (not active)
same,EC50,[8],4.5 µM (active)
same,EC50,[9],8.79 µM (active)
same,EC50,[10],4.01 µM (active)
same,EC50,[11],> 150 µM (inactive)
same,EC50,[12],9.07 µM (active)
same,IC50,[13],5.96 µM (active)
same,EC50,[14],9.45 µM (active)
same,AC50,[15],3.04 µM (active)
same,EC50,[16],5.78 µM (active)
CCN(CC)C(=O)CC(c1ccc(N(C)C)cc1)c1c(OC)cc(OC)c2c(-c3ccccc3)cc(=O)oc12 (stereo not drawn),EC50,[5],2.74 µM (active)
O=C1C2C3C=CC(C4CC34)C2C(=O)N1Cc1ccco1 (stereo not drawn),AC50,[17],12.4 µM (active)
Sc1nnc(-c2ccco2)n1/N=C/c1ccc(Cl)cc1Cl,IC50,[18],> 64 µM (inactive)
Cc1ccc(Nc2cc(C)nc3ccc(C)cc23)cc1,CC50,[4],45.9 µM (active)
same,EC50,[6],1.5 µM (active)
COc1ccc(N(Cc2cc3cc(OC)ccc3[nH]c2=O)S(=O)(=O)c2ccc(NC(C)=O)cc2)cc1,EC50,[19],> 20 µM (inactive)
same,AC50,[20],1.29 µM (active)
same,EC50,[21],> 112 µM (not active)
same,EC50,[22],0.309 µM (active)
CC(C)C[C@@H](CSc1ccccc1)N1CCN(CCc2ccccc2)CCC1=O,EC50,[5],6.56 µM (active)
Cc1ccc(-c2csc(NC(=O)CSc3nc4ccccc4c(=O)n3CCCN(C)C)n2)cc1,IC50,[18],50 µM (inactive)
same,IC50,[23],> 20 µM (inactive)
O=C(O)CCc1nc(-c2ccc(Cl)cc2)no1,AC50,[17],16.1 µM (active)
COc1ccccc1NS(=O)(=O)c1ccc(NN=C2CCCC2)c([N+](=O)[O-])c1,IC50,[18],> 64 µM (inactive)
COc1cc(CNC2CCCC2)c(Br)cc1OC1CCCC1,EC50,[6],0.0373 µM (active)
O=C1C=C(c2cccc(Br)c2)C[C@@H](c2ccc(F)cc2)C1,AC50,[17],48.9 µM (active)
